Data reported in patent US20250215039A1, “NUCLEOSIDES FOR TREATING CANCER” (PRIMEFOUR THERAPEUTICS, INC., priority 2022, published 2025).
Where two headings read alike, the source gives them in different places.

Tested on: cancer cell lines
Test: Cancer cell proliferation activity (CellTiterGlo, 72 h)
Assay type: cell-based
Conditions: 72 h, 72 h, read-out: IC50
Method: Dose response relationships on cell proliferation was assessed for representative Compounds of the Disclosure on cancer cell lines. Briefly, compound treatment of cells started one day after seeding with a final DMSO concentration of 0.1%, and was performed by nanodrop-dispensing using a Tecan Dispenser. 0.1% DMSO (solvent) and Staurosporine (10 μM) served as high control (100% viability) and low control (0% viability), respectively.
Cells were cultured in the appropriate media. For the assays, cells were seeded in white cell culture-treated flat and clear bottom multiwell plates and incubated at 37° C. overnight before compound was added. After incubation for 72 h at 37° C. at 5% or 10% CO2 dependent on the medium, cell plates were equilibrated to room temperature for one hour, CellTiterGlo reagent (Promega) was added and luminescence was measured approximately an hour later using a luminometer.
Raw data were converted into percent cell viability relative to the high and low control, which were set to 100% and 0%, respectively.
The IC50 values are summarized in Tables 9A-1, Table 10A, and Table 10B.

For CC[C@]1(CO)O[C@@H](n2cnc3c(N)nc(F)nc32)C[C@@H]1O [Cpd. No. 1, (2R,3S,5R)-5-(6-amino-2-fluoro-9H-purin-9-yl)-2-ethyl-2-(hydroxymethyl)tetrahydrofuran-3-ol], the IC50 (5637 cell line (bladder)) was 880 nM, the IC50 (CLS439 cell line (bladder)) was > 50000 nM and the IC50 (HS729 cell line (muscle)) was 1240 nM. For the same molecule, the IC50 (JAR cell line (placenta)) was 440 nM, the IC50 (U20S cell line, bone) was 840 nM and the IC50 (Homo sapiens, 22Rv1, 72 h, 22RV1 cell line (prostate)) was 1860 nM. For the same molecule, the IC50 (Homo sapiens, 786-0, 72 h, 786O cell line (kidney)) was 620 nM, the IC50 (Homo sapiens, A204, 72 h, A204 cell line (muscle)) was 550 nM and the IC50 (Homo sapiens, A549, 72 h, A549 cell line, lung) was > 50000 nM. For the same molecule, the IC50 (Homo sapiens, A673, 72 h, A673 cell line (bone)) was 2560 nM, the IC50 (Homo sapiens, A2780, 72 h, A2780 cell line (ovary)) was 910 nM and the IC50 (Homo sapiens, A-375, 72 h, A375 cell line (skin)) was 530 nM. For the same molecule, the IC50 (Homo sapiens, A-431, 72 h, A431 cell line (skin)) was 530 nM, the IC50 (Homo sapiens, ACHN, ACHN cell line (kidney)) was > 50000 nM and the IC50 (Homo sapiens, ASPC1, 72 h, ASPC1 cell line (pancreas)) was 470 nM. For the same molecule, the IC50 (Homo sapiens, BT-20, 72 h, BT20 cell line (breast)) was 550 nM, the IC50 (Homo sapiens, C-33-A, C33A cell line, endometrial) was 950 nM and the IC50 (Homo sapiens, CAKI-1, 72 h, CAKI1 cell line (kidney)) was 60 nM. The IC50 (Homo sapiens, COLO 205, 72 h, COLO205 cell line (colon)) was 1060 nM, the IC50 (Homo sapiens, COLO-678, 72 h, COLO678 cell line (colon)) was > 50000 nM and the IC50 (Homo sapiens, Ca-Ski, CASKI cell line, endometrial) was 310 nM. The IC50 (Homo sapiens, Caco-2, 72 h, CACO2 cell line (colon)) was 1040 nM, the IC50 (Homo sapiens, Calu-6, 72 h, CALU6 cell line (lung)) was 650 nM and the IC50 (Homo sapiens, DLD-1, 72 h, DLD1 cell line (colon)) was 2070 nM. For the same molecule, the IC50 (Homo sapiens, DU-145, 72 h, DU145 cell line (prostate)) was 190 nM, the IC50 (Homo sapiens, EFO-21, 72 h, EFO21 cell line (ovary)) was 520 nM and the IC50 (Homo sapiens, EJ-28, 72 h, EJ28 cell line (bladder)) was 490 nM. The IC50 (Homo sapiens, Granta-519, 72 h, GRANTA-519 cell line (hematological)) was > 50000 nM, the IC50 (Homo sapiens, HCT-15, 72 h, HCT15 cell line (colon)) was 2780 nM and the IC50 (Homo sapiens, HCT-116, 72 h, HCT116 cell line (colon)) was 820 nM. The IC50 (Homo sapiens, HEK293, 72 h, HEK293 cell line (kidney)) was 710 nM, the IC50 (Homo sapiens, HL-60, 72 h, HL-60 cell line (hematological)) was 830 nM and the IC50 (Homo sapiens, HT-29, 72 h, HT29 cell line (colon)) was 530 nM. For the same molecule, the IC50 (Homo sapiens, HT-1080, 72 h, HT1080 cell line (connective tissue)) was > 50000 nM, the IC50 (Homo sapiens, HeLa, HELA cell line, endometrial) was 1070 nM and the IC50 (Homo sapiens, HepG2, 72 h, HEPG2 cell line (liver)) was 670 nM. It also gave an IC50 (Homo sapiens, Hs-578T, HS578T cell line, breast) of 850 nM, an IC50 (Homo sapiens, IGROV-1, 72 h, IGROV1 cell line (ovary)) of 380 nM and an IC50 (Homo sapiens, IMR-90, 72 h, IMR90 cell line, lung) of 640 nM. For the same molecule, the IC50 (Homo sapiens, J82, 72 h, J82 cell line (bladder)) was 540 nM, the IC50 (Homo sapiens, JEG-3, 72 h, JEG3 cell line (placenta)) was 670 nM and the IC50 (Homo sapiens, JIMT-1, 72 h, JIMT1 cell line (breast)) was 160 nM. The IC50 (Homo sapiens, K562, 72 h, K-562 cell line (hematological)) was > 50000 nM, the IC50 (Homo sapiens, Kasumi 1, 72 h, KASUMI-1 cell line (hematological)) was 150 nM and the IC50 (Homo sapiens, L-363, 72 h, L-363 cell line (hematological)) was 570 nM. For the same molecule, the IC50 (Homo sapiens, LoVo, LOVO cell line (colon)) was 290 nM, the IC50 (Homo sapiens, MCF7, 72 h, MCF7 cell line (breast)) was > 50000 nM and the IC50 (Homo sapiens, MDA-MB-231, 72 h, MDAMB231 cell line (breast)) was > 50000 nM. The IC50 (Homo sapiens, MDA-MB-435, 72 h, MDAMB435 cell line (skin)) was 1720 nM, the IC50 (Homo sapiens, MDA-MB-436, 72 h, MDAMB436 cell line (breast)) was 370 nM and the IC50 (Homo sapiens, MDA-MB-468, 72 h, MDAMB468 cell line (breast)) was 690 nM. The IC50 (Homo sapiens, MG-63, 72 h, MG63 cell line (bone)) was > 50000 nM, the IC50 (Homo sapiens, MHH-ES-1, 72 h, MHHES1 cell line (bone)) was 600 nM and the IC50 (Homo sapiens, MIA PaCa-2, 72 h, MIAPACA2 cell line (pancreas)) was > 50000 nM. The IC50 (Homo sapiens, MINO, MINO cell line (hematological)) was 250 nM, the IC50 (Homo sapiens, MV4-11, 72 h, MV4-11 cell line (hematological)) was 170 nM and the IC50 (Homo sapiens, NCI-H23, 72 h, NCI-H23 cell line (lung)) was 830 nM. The IC50 (Homo sapiens, NCI-H82, 72 h, NCIH82 cell line (lung)) was 610 nM, the IC50 (Homo sapiens, NCI-H292, 72 h, NCIH292 cell line (lung)) was > 50000 nM and the IC50 (Homo sapiens, NCI-H460, 72 h, NCIH460 cell line (lung)) was 970 nM. For the same molecule, the IC50 (Homo sapiens, OVCAR-3, 72 h, OVCAR3 cell line (ovary)) was 260 nM, the IC50 (Homo sapiens, OVCAR-4, 72 h, OVCAR4 cell line (ovary)) was 960 nM and the IC50 (Homo sapiens, PANC-1, 72 h, PANC1 cell line (pancreas)) was > 50000 nM. It also gave an IC50 (Homo sapiens, PC-3, 72 h, PC3 cell line (prostate)) of 870 nM, an IC50 (Homo sapiens, PLC-PRF-5, 72 h, PLCPRF5 cell line (liver)) of 3200 nM and an IC50 (Homo sapiens, Panc1005, 72 h, PANC1005 cell line (pancreas)) of 440 nM. It also gave an IC50 (Homo sapiens, RD, RD cell line (muscle)) of 1460 nM, an IC50 (Homo sapiens, Ramos, RAMOS cell line (hematological)) of 940 nM and an IC50 (Homo sapiens, SAOS-2, 72 h, SAOS2 cell line (bone)) of 640 nM. For the same molecule, the IC50 (Homo sapiens, SF-268, 72 h, SF268 cell line (brain)) was > 50000 nM, the IC50 (Homo sapiens, SF-295, 72 h, SF295 cell line (brain)) was 1420 nM and the IC50 (Homo sapiens, SK-BR-3, 72 h, SKBR3 cell line (breast)) was 150 nM. For the same molecule, the IC50 (Homo sapiens, SK-HEP1, 72 h, SKHEP1 cell line (liver)) was > 50000 nM, the IC50 (Homo sapiens, SK-LMS-1, 72 h, SKLMS1 cell line (uterus)) was 470 nM and the IC50 (Homo sapiens, SK-MEL-5, 72 h, SKMEL5 cell line, skin) was > 50000 nM. It also gave an IC50 (Homo sapiens, SK-MEL-28, 72 h, SKMEL28 cell line (skin)) of 1260 nM, an IC50 (Homo sapiens, SK-N-AS, SKNAS cell line (brain)) of 1140 nM and an IC50 (Homo sapiens, SK-N-SH, SKNSH cell line (brain)) of 750 nM. The IC50 (Homo sapiens, SK-OV-3, 72 h, SKOV3 cell line (ovary)) was 760 nM, the IC50 (Homo sapiens, SNB-75, 72 h, SNB75 cell line (brain)) was 2370 nM and the IC50 (Homo sapiens, SU-DHL10, 72 h, SU-DHL-10 cell line (hematological)) was 120 nM. The IC50 (Homo sapiens, SU-DHL-6, 72 h, SU-DHL-6 cell line (hematological)) was 430 nM, the IC50 (Homo sapiens, SW-620, 72 h, SW620 cell line (colon)) was 730 nM and the IC50 (Homo sapiens, T-24, 72 h, T24 cell line (bladder)) was 1460 nM. The IC50 (Homo sapiens, TE-671, 72 h, TE671 cell line (muscle)) was 4780 nM, the IC50 (Homo sapiens, THP-1, 72 h, THP-1 cell line (hematological)) was > 50000 nM and the IC50 (Homo sapiens, U-87 MG, U87MG cell line (brain)) was > 50000 nM. The IC50 (Homo sapiens, UMUC3, 72 h, UMUC3 cell line (bladder)) was > 50000 nM, the IC50 (Homo sapiens, UO-31, 72 h, UO31 cell line (kidney)) was 630 nM and the IC50 (Homo sapiens, WSU-NHL, WSU-NHL cell line (hematological)) was 720 nM. For the same molecule, the IC50 (MT-3, 72 h, MT3 cell line (breast)) was 510 nM, the IC50 (NCI-H358M, NCIH358M cell line (lung)) was 560 nM and the IC50 (PBMC, PBMC (hematological)) was 310 nM. The IC50 (RD-ES, RDES cell line (bone)) was 410 nM.
